Results published in patent publication US10329294B2, “Pyrazolopyrimidine inhibitors of IRAK4 activity” (MERCK SHARP & DOHME CORP., priority 2015, dated 2019).
Counter-ions that a name gives are not always drawn.

Biological target: IRAK4 (Homo sapiens (Human), UniProt Q9NWZ3)
Experiment: IRAK4 Kinase Assay
Assay type: biochemical
Conditions: IMAP fluorescence polarization, 0.5 nM GST tagged IRAK4, 100 μM ATP, 30 minutes at 25° C.; read-out: IRAK4 IC50

Sequence of IRAK4 (Q9NWZ3 whole entry): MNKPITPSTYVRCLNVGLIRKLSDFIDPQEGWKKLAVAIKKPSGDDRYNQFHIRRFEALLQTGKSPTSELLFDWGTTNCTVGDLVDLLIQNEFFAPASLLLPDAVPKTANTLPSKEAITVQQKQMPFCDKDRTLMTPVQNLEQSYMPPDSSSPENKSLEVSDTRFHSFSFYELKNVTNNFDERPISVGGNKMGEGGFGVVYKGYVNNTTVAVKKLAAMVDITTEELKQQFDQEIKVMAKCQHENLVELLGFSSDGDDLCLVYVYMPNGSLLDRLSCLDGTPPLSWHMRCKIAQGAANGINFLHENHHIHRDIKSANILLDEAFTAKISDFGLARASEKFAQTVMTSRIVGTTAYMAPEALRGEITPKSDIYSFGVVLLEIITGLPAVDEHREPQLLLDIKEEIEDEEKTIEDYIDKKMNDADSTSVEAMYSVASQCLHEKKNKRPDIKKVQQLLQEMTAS

IC50 [nM]	Structure (SMILES)
320	O=C(Nc1cn(CC(F)(F)F)nc1C(F)(F)F)c1cnn2ccc(N[C@@H]3CCCC[C@@H]3O)nc12 [Example 57, 5-{[(1R,2S)-2-hydroxycyclohexyl]amino}-N-[1-(2,2,2-trifluoroethyl)-3-(trifluoromethyl)-1H-pyrazol-4-yl]pyrazolo[1,5-a]pyrimidine-3-carboxamide trifluoroacetate]
8	N[C@H]1CCCC[C@H]1Nc1ccn2ncc(C(=O)Nc3ccoc3C(F)(F)F)c2n1 [Example 45, 5-{[(1R,2S)-2-aminocyclohexyl]amino}-N-[2-(trifluoromethyl)furan-3-yl]pyrazolo[1,5-a]pyrimidine-3-carboxamide trifluoroacetate]
5600	O=C(Nc1ccccc1C(F)(F)F)c1cnn2ccc(N3CC4CCC3CN4)nc12 (stereo not drawn) [Example 115, 5-(2,5-diazabicyclo[2.2.2]oct-2-yl)-N-[2-(trifluoromethyl)phenyl] pyraozlo[1,5-a]pyrimidine-3-carboxamide trifluoroacetate]
84	O=C(Nc1cscc1C(F)F)c1cnn2ccc(N3CCCNCC3)nc12 [Example 120, 5-(1,4-diazepan-1-yl)-N-[4-(difluoromethyl)thiophen-3-yl]pyrazolo[1,5-a]pyrimidine-3-carboxamide trifluoroacetate]
60	Cn1cc(NC(=O)c2cnn3ccc(N4CCC(F)(F)[C@@H](N)C4)nc23)c(C(F)(F)F)n1 (single isomer, unassigned) [Example 188, 5-[(4R)- or (4S)-(3-amino-4,4-difluoropiperidin-1-yl)-N-[1-methyl-3-(trifluoromethyl)-1H-pyrazol-4-yl]pyrazolo[1,5-a]pyrimidine-3-carboxamide trifluoroacetate]
0.8	CC(C)n1cc(NC(=O)c2cnn3ccc(N[C@@H]4CCCC[C@@H]4N)nc23)c(C(F)(F)F)n1 [Example 291, 5-{[(1R,2S)-2-aminocyclohexyl]amino}-N-[1-(1-methylethyl)-3-(trifluoromethyl)-1H-pyrazol-4-yl]pyrazolo[1,5-a]pyrimidine-3-carboxamide trifluoroacetate]
74	O=C(Nc1cn(C(F)F)nc1C(F)(F)F)c1cnn2ccc(N3CC4CCC3CN4)nc12 (stereo not drawn) [Example 67, 5-(2,5-diazabicyclo[2.2.2]oct-2-yl)-N-[1-(difluoromethyl)-3-(trifluoromethyl)-1H-pyrazol-4-yl]pyrazolo[1,5-a]pyrimidine-3-carboxamide trifluoroacetate]
376	Cn1cc(NC(=O)c2cnn3ccc(N4CCNCC(F)(F)C4)nc23)c(C(F)(F)F)n1 [Example 36, 5-(6,6-difluoro-1,4-diazepan-1-yl)-N-[1-methyl-3-(trifluoromethyl)-1H-pyrazol-4-yl]pyrazolo[1,5-a]pyrimidine-3-carboxamide trifluoroacetate]
2	N[C@H]1CCCC[C@H]1Nc1ccn2ncc(C(=O)Nc3cn(C(F)F)nc3C(F)(F)F)c2n1 [Example 296, 5-{[(1R,2S)-2-aminocyclohexyl]amino}-N-[1-(difluoromethyl)-3-(trifluoromethyl)-1H-pyrazol-4-yl]pyrazolo[1,5-a]pyrimidine-3-carboxamide trifluoroacetate]
29	O=C(Nc1cn(CC(F)F)nc1C(F)(F)F)c1cnn2ccc(N3CCNCC3)nc12 [Example 62, N-[1-(2,2-difluoroethyl)-3-(trifluoromethyl)-1H-pyrazol-4-yl]-5-piperazin-1-ylpyrazolo[1,5-a]pyrimidine-3-carboxamide trifluoroacetate]
497	Cn1cc(NC(=O)c2cnn3ccc(N4CCN5CCC4CC5)nc23)c(C(F)(F)F)n1 [Example 40, 5-(1,4-diazabicyclo[3.2.2]non-4-yl)-N-[1-methyl-3-(trifluoromethyl)-1H-pyrazol-4-yl]pyrazolo[1,5-a]pyrimidine-3-carboxamide trifluoroacetate]
977	Cn1cc(NC(=O)c2cnn3ccc(NCCN4CCOCC4)nc23)c(C(F)(F)F)n1 [Example 290, N-[1-methyl-3-(trifluoromethyl)-1H-pyrazol-4-yl]-5-[(2-morpholin-4-ylethyl)amino]pyrazolo[1,5-a]pyrimidine-3-carboxamide trifluoroacetate]

Continued, compound first:

Structure (SMILES)	IC50 [nM]
Cn1cc(NC(=O)c2cnn3ccc(N4[C@H]5CCNC[C@@H]4CC5)nc23)c(C(F)(F)F)n1 (single isomer, unassigned) [Example 222, 5-[(1R,6S)- or (1S,6R)-3,9-diazabicyclo[4.2.1]non-9-yl]-N-[1-methyl-3-(trifluoromethyl)-1H-pyrazol-4-yl]pyrazolo[1,5-a]pyrimidine-3-carboxamide trifluoroacetate]	168
Cn1cc(NC(=O)c2cnn3ccc(N[C@@H]4CCCC[C@@H]4O)nc23)c(Cl)n1 [Example 186, N-(3-chloro-1-methyl-1H-pyrazol-4-yl)-5-{[(1R,2S)-2-hydroxycyclohexyl]amino} pyrazolo[1,5-a]pyrimidine-3-carboxamide]	24
Cn1cc(NC(=O)c2cnn3ccc(N[C@@H]4CCC(F)(F)C[C@@H]4N)nc23)c(C(F)F)n1 (single isomer, unassigned) [Example 211, 5-{[(1S,2R)- or (1R,2S)-2-amino-4,4-difluorocyclohexyl]amino}-N-[3-(difluoromethyl)-1-methyl-1H-pyrazol-4-yl]pyrazolo[1,5-a]pyrimidine-3-carboxamide]	27
Cn1cc(NC(=O)c2cnn3ccc(N4CCN5CCCC5C4)nc23)c(C(F)(F)F)n1 (stereo not drawn) [Example 18, 5-(hexahydropyrrolo[1,2-a]pyrazin-2(1H)-yl)-N-[1-methyl-3-(trifluoromethyl)-1H-pyrazol-4-yl]pyrazolo[1,5-a]pyrimidine-3-carboxamide]	97
Cn1cc(NC(=O)c2cnn3ccc(N4CCC[C@@H](O)C4)nc23)c(C(F)(F)F)n1 [Example 23, 5-[(3R)-3-hydroxypiperidin-1-yl]-N-[1-methyl-3-(trifluoromethyl)-1H-pyrazol-4-yl]pyrazolo[1,5-a]pyrimidine-3-carboxamide]	0.9
Cn1cc(NC(=O)c2cnn3ccc(N[C@H]4CNCC(F)(F)C4)nc23)c(C(F)F)n1 (single isomer, unassigned) [Example 235, N-[3-(difluoromethyl)-1-methyl-1H-pyrazol-4-yl]-5-{[(3S)- or (3R)-5,5-difluoropiperidin-3-yl]amino}pyrazolo[1,5-a]pyrimidine-3-carboxamide]	0.7
Cn1cc(NC(=O)c2cnn3ccc(N4[C@@H]5CC[C@H]4[C@@H]4CC[C@H]5N4)nc23)c(C(F)(F)F)n1 [Example 92, 5-[9,10-diazatricyclo[4.2.1.1~2,5~]dec-9-yl]-N-]1-methyl-3-(trifluoromethyl)-1H-pyrazol-4-yl]pyrazolo[1,5-a]pyrimidine-3-carboxamide trifluoroacetate]	115
Cn1cc(NC(=O)c2cnn3ccc(N[C@@H]4CCCCC[C@@H]4N)nc23)c(C(F)(F)F)n1 (single isomer, unassigned) [Example 54, 5-{[(1R,2S)- or (1S,2R)-2-aminocycloheptyl]amino}-N-[1-methyl-3-(trifluoromethyl)-1H-pyrazol-4-yl]pyrazolo[1,5-a]pyrimidine-3-carboxamide]	63
Cn1cc(NC(=O)c2cnn3ccc(N4CC[C@@H]5C[C@H]4CN5)nc23)c(C(F)(F)F)n1 [Example 213, 5-[(1S,5R)-2,6-diazabicyclo[3.2.1]oct-2-yl]-N-[1-methyl-3-(trifluoromethyl)-1H-pyrazol-4-yl]pyrazolo[1,5-a]pyrimidine-3-carboxamide]	3
